Measured values from US20200030355A1, “COMBINATION THERAPY FOR TREATING CANCER” (Epizyme, Inc., priority 2014, published 2020).

Columns and labels:
[1] = tested on: 258 kinases; test: Kinase selectivity analysis; assay type: biochemical; settings: analysis of 258 kinases
Description: (§1) Compound 1 is a potent inhibitor of the kinase activities of ERK1 and ERK2. In some embodiments, Compound 1 inhibits one or both of ERK1 and ERK2 with an IC50 of about 10 to about 20 nM.

[2] = tested on: KRAS-mutant cancer cell lines; test: Cancer cell panel screening, anti-proliferative activity; assay type: cell-based; settings: 28 of 37 KRAS-mutant cancer cell lines
Text: (§2) Bioinformatic analyses indicate that tumors with activating mutations of BRAF are particularly sensitive to Compound 1. […] In the same cancer cell panel screening, 28 of 37 (76%) KRAS-mutant cancer cell lines were sensitive to Compound 1. […] This is of particular importance as resistance to BRAF inhibition has been commonly observed in human patients. […] Without wishing to being bound by any particular theory, it is believed that inhibitors of one or both of ERK1 and ERK2, or a mutant thereof, such as Compound 1, or pharmaceutically acceptable salts thereof, provide effective salvage therapy.

[3] = tested on: BRAF-mutant cancer cell lines; test: as above; assay type: cell-based; settings: 25 of 27 BRAF-mutant cancer cell lines tested
Text: as §2

[4] = tested on: SKM-1 (non-MLL-r); test: Compound A2 7-day pre-treatment, then Compound A2 and Compound 1 for 3 days, CellTiter-Glo (Example 9); assay type: cell-based, human; settings: Compound A2 7 days, then both for 3 days, n=2
Description: (§3) At the endpoint, cell viability was measured via ATP content using CellTiter-Glo®.

[5] = tested on: MOLM-13 (MLL-AF9); test: as above; assay type: cell-based, human; settings: Compound A2 7 days, then both for 3 days, n=2
Description: as §3

[6] = biological target: ERK1 (Homo sapiens, UniProt P27361); test: ERK kinase activity inhibition; assay type: biochemical
Description: as §1
(§4) The activity of Compound 1, and pharmaceutically acceptable salts thereof, as an inhibitor of one or both of an ERK1 and ERK2 kinase, or a mutant thereof, may be assayed in vitro, in vivo or in a cell line. In vitro assays include assays that determine inhibition of downstream phosphorylation, changes in gene expression, subsequent functional markers and consequences, and/or kinase activity of one or both of activated ERK1 and ERK2 kinase, or a mutant thereof. Alternate in vitro assays quantitate the ability of the test compound to bind to one or both of ERK1 and ERK2. Test compound binding may be measured by radiolabeling the test compound prior to binding, isolating one or both of the compound/ERK1 complex and the compound/ERK2 complex, and determining the amount of radiolabel bound. Alternatively, test compound binding may be determined by running a competition experiment where test compounds are incubated with one or both of ERK1 and ERK2 kinase bound to known radioligands. […]

[7] = biological target: ERK2 (Homo sapiens, UniProt P28482); test: ERK kinase activity inhibition; assay type: biochemical
Description: as §1, §4

[8] = tested on: A375 melanoma cells that have acquired in vitro resistance to BRAF and MEK inhibition; test: Inhibitory activity against resistant melanoma cells; assay type: cell-based
Text: as §2

[9] = tested on: OCI-AML-4 (MLL-ENL); test: EPZ-5676 7-day pre-treatment, then second compound 72 hours, growth inhibition GI100 shift; primary screen and retest (Example 7); assay type: cell-based
Description: (§5) Cells were then equilibrated in incubators for 24 hours before treatment with a second compound. Treated assay plates were incubated with a second compound for 72 hours. After this time, plates were developed for endpoint analysis using ATPLite to measure ATP content, which is used as an indicator of cell viability.
(§6) Cells were then treated with a second compound for 72 hours. After this time, plates were developed for endpoint analysis using Cell Titer Glo to measure ATP content, which is used as an indicator of cell viability.
(§7) “N/D” means the GI100 of the second compound could not be determined for both conditions and “-” means not tested.
(§8) Growth Inhibition (GI) as a measure of cell viability: The cell viability of vehicle was measured at the time of dosing the second agent (T0) and after seventy-two hours (T72). […] A GI 200% represents complete death of all cells in the culture well. Compounds reaching an activity plateau of GI 200% are considered cytotoxic. GI is calculated by applying the following test and equation: […]
(§9) where T is the signal measure for a test article, V is the vehicle-treated control measure, and V0 is the vehicle control measure at time zero.

[10] = tested on: MOLM-13 (MLL-AF9); test: Combination proliferation study with Compound A2 (ATP/CellTiter-Glo, Chou-Talalay combination index); assay type: cell-based, human; settings: 7 Day Cotreatment Model, Table 4
Outline: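 Viability by CellTiter-Glo ATP luminescence; Fa relative to DMSO controls. Combination index by Chou-Talalay (CI<1 synergy, =1 additive, >1 antagonism).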

[11] = tested on: ML-2 (MLL-AF6); test: EPZ-5676 7-day pre-treatment, then second compound 72 hours, growth inhibition GI100 shift (Example 7); assay type: cell-based
Description: as §5, §6, §7, §8, §9

[12] = tested on: SKM-1 (non-MLLr); test: EPZ-5676 7-day pre-treatment, then second compound 72 hours, growth inhibition GI100 shift; primary screen and retest (Example 7); assay type: cell-based, human; settings: 300 nM EPZ-5676 7-day pre-treatment
Description: as §5, §6, §7, §8, §9

[13] = tested on: MOLM-13 (MLL-AF9); test: as above; assay type: cell-based, human
Description: as §5, §6, §7, §8, §9

[14] = 300 nM EPZ-5676 7-day pre-treatment, second compound 72 hours, ATPLite

Chain of ERK2 (P28482 whole entry): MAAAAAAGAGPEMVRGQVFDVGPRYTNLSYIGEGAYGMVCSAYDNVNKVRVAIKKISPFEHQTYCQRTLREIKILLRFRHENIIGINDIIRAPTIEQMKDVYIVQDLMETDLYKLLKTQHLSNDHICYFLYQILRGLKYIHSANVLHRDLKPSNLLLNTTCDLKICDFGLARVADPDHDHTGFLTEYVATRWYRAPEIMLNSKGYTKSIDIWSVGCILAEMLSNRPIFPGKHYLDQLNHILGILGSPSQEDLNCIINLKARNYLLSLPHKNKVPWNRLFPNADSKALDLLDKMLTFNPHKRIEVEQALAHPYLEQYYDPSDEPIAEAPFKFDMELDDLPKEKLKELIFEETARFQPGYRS
Chain of ERK1 (P27361 whole entry): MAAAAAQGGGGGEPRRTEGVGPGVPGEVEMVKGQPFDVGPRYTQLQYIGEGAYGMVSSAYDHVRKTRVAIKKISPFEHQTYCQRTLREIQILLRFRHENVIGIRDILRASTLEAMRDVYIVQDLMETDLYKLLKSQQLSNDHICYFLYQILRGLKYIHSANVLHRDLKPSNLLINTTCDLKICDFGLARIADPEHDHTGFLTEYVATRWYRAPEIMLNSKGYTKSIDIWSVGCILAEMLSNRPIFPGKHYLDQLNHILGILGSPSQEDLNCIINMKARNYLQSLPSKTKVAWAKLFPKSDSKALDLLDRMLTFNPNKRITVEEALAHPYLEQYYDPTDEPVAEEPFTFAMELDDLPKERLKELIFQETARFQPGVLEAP

Row | Structure (SMILES) | Kinase selectivity profile [1] | Cell lines sensitive to Compound 1 [2] | Cell lines sensitive to Compound 1 inhibition (GI50 <1 μM) [3] | Combination (Compound A2 and Compound 1) [4] | Combination (Compound A2 and Compound 1) [5] | IC50 [6] | IC50 [7] | Activity against resistant A375 melanoma cells [8] | GI100 [9] | Combination with EPZ-5676, OCI-AML-4 (MLL-ENL) Primary screen [9, 14] | Combination with EPZ-5676, OCI-AML-4 (MLL-ENL) Retest ([9]; 300 nM EPZ-5676 7-day pre-treatment, second compound 72 hours, Cell Titer Glo) | Combination with Compound A2, MOLM-13 (MLL-AF9) [10] | GI100 [11] | Combination with EPZ-5676, SKM-1 (non-MLLr) Primary screen ([12]; ATPLite) | Combination with EPZ-5676, SKM-1 (non-MLLr) Retest ([12]; Cell Titer Glo) | GI100 [13] | Combination with EPZ-5676, MOLM-13 (MLL-AF9) Retest ([13]; 150 nM EPZ-5676 7-day pre-treatment, second compound 72 hours, Cell Titer Glo) | Combination with EPZ-5676, MOLM-13 (MLL-AF9) Primary screen [13, 14]
1 | C=CC(=O)Nc1cc(C)ccc1Nc1nc(Nc2cc(OC)ncc2C)ncc1C(F)(F)F [Compound 1, N-(2-((2-((2-methoxy-5-methylpyridin-4-yl)amino)-5-(trifluoromethyl)pyrimidin-4-yl)amino)-5-methylphenyl)acrylamide] | good overall kinase selectivity profile | 76% | 93% | No benefit | Synergy | 10 to 20 nM | 10 to 20 nM | inhibitory activity | – | – | – | – | – | – | – | – | – | –
2 | CC(=O)Nc1cccc(-n2c(=O)n(C3CC3)c(=O)c3c(Nc4ccc(I)cc4F)n(C)c(=O)c(C)c32)c1 [Trametinib] | – | – | – | – | – | – | – | – | 0.009 | Synergy (considered synergistic if the GI100 (Growth inhibition 100) value of the second compound decreased by 2-fold or more when EPZ-5676 was added as compared to the DMSO control) | Synergy (considered synergistic if the GI100 (Growth inhibition 100) value of the second compound decreased by 2-fold or more when EPZ-5676 was added as compared to the DMSO control) | Synergy (Drug synergy was statistically defined by CI values less than 1) | 0.001 | Synergy (considered synergistic if the GI100 (Growth inhibition 100) value of the second compound decreased by 2-fold or more when EPZ-5676 was added as compared to the DMSO control) | Synergy (considered synergistic if the GI100 (Growth inhibition 100) value of the second compound decreased by 2-fold or more when EPZ-5676 was added as compared to the DMSO control) | 0.03 | Synergy (considered synergistic if the GI100 (Growth inhibition 100) value of the second compound decreased by 2-fold or more when EPZ-5676 was added as compared to the DMSO control) | Synergy (considered synergistic if the GI100 (Growth inhibition 100) value of the second compound decreased by 2-fold or more when EPZ-5676 was added as compared to the DMSO control)
